According to patent publication US6924400B2, “Triaromatic vitamin D analogues” (Galderma Research & Development, SNC, priority 2001, dated 2005):

Key:
human VDR receptor = target: T1, human VDR receptor (Homo sapiens, UniProt P11473); assay: VDR agonist activity, HeLa cotransfection with reporter plasmid p240Hase-CAT; assay type: cell-based; conditions: for AC50: HeLa cells, treatment for 18 hours, CAT activity by ELISA; for VDR agonist activity compared with calcitriol: comparison in words
T1 construct: expressed in transfected cells; host or cells: HeLa
T1 sequence (P11473 1-427): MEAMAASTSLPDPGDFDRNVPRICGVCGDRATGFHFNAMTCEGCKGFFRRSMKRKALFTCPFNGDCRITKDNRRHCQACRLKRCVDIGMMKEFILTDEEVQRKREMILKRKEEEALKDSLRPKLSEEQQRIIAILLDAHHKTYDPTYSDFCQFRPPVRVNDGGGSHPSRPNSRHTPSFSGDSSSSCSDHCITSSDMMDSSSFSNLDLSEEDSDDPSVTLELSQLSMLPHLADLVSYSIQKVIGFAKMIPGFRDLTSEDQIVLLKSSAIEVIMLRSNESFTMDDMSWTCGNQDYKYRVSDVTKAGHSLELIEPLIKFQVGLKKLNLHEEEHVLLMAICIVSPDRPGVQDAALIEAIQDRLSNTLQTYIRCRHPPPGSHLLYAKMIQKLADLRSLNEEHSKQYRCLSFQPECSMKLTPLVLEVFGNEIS
Procedure: By way of example, the VDR agonist activity may be tested on the HeLa cell line by cotransfection of an expression vector of the human VDR receptor and of the reporter plasmid p240Hase-CAT. The agonist activity may also be characterized in this cotransfection system, by determining the dose required to achieve 50% of the maximum activity of the product (AC50).
18 hours after cotransfection, the test compound is added to the medium. After treatment for 18 hours, the CAT activity of the cell lysates is assayed by means of an ELISA test (Enzyme Linked ImmunoSorbent Assay, sold by Roche Molecular Biochemicals).

[1] = test system: normal human keratinocytes; assay: Activity on the proliferation of human keratinocytes (BrdU incorporation); conditions: for IC50: Homo sapiens, Keratinocyte, 120 h, read-out: IC50-proliferation of KHNs
Procedure: The biological properties analogous to vitamin D may also be measured by means of the capacity of the product to inhibit the proliferation of normal human keratinocytes (NHK in culture). The product is added to NHKs cultured under conditions promoting the proliferative state. The product is left in contact with the cells for five days. The number of proliferative cells is measured by incorporation of bromodeoxyuridine (BRdU) into the DNA.
The method used is as follows: normal human keratinocytes are inoculated at low density into a 24-well plate. After 4 hours, the test compounds are added to the culture medium. After culturing for 5 days, the proliferation of the keratinocytes is determined by incorporating 5-bromo-2′-deoxyuridine (BrdU) into the DNA. The amount of BrdU incorporated is then measured using the ELISA test (Enzyme Linked ImmunoSorbent Assay, sold by Roche Molecular Biochemicals).

HL60 cells = assay: Activity on the differentiation of HL60 cells (NBT reduction); assay type: cell-based; conditions: for AC50: Homo sapiens, HL-60, 96 h, HL60 cells, culturing for 4 days, NBT-positive cells counted; for differentiation-inducing activity on HL60 cells compared with calcitriol: comparison in words
Description: The biological properties analogous to vitamin D may also be measured by means of the capacity of the product to induce the differentiation of promyelocytic leukemia cells HL60. The protocol and also the results obtained with the compounds according to the invention are described in Example 8 of the present patent application.
Calcitrol induces the differentiation of promyelocytic leukaemia cells (HL60) into monocytes/macrophages. This differentiation-inductive effect is a well-characterized marker of cellular vitamin D. One of the most important antimicrobial products of macrophages is hydrogen peroxide, which may be analysed experimentally by the reduction of NBT (Nitroblue Tetrazolium).
The method used is as follows: the HL60 cells are inoculated into 6-well plates and then treated immediately with a test compound. After culturing for 4 days, the cells are incubated with phorbol TPA ester and NBT for a short period and the differentiated cells, i.e., the ones that are positive to NBT, are counted.

Structure (SMILES) | AC50 (human VDR receptor) [µM] | VDR agonist activity compared with calcitriol (human VDR receptor) | IC50 [1] [µM] | inhibitory activity on keratinocyte proliferation compared with calcitriol ([1]; comparison in words) | AC50 (HL60 cells) [µM] | differentiation-inducing activity on HL60 cells compared with calcitriol (HL60 cells) | activity on keratinocyte proliferation relative to calcitriol ([1]; fold greater than calcitriol)
CCC(O)(CC)c1ccc(-c2cc(NCc3ccc(CO)c(CO)c3)ccc2C)c(C)c1 [Example 6, (4-{[4′-(1-Ethyl-1-hydroxypropyl)-6,2′-dimethylbiphenyl-3-ylamino]-methyl}-2-hydroxymethylphenyl)methanol] | 0.05 | less good activity compared with calcitriol | 0.122 | less good activity compared with calcitriol | 0.147 | less good activity compared with calcitriol | –
CCc1cc(C(O)(CC)CC)ccc1-c1cc(OCc2ccc(CO)c(CO)c2)ccc1CC [Example 2, {5-[6,2′-Diethyl-4′-(1-ethyl-1-hydroxypropyl)biphenyl-3-yloxymethyl]-2-hydroxymethylphenyl}methanol] | 0.0041 | – | 0.053 | – | 0.015 | – | –
CCCc1cc(C(O)(CC)CC)ccc1-c1cc(OCc2ccc(CO)c(CO)c2)ccc1C [Example 1, {5-[4′-(1-Ethyl-1-hydroxypropyl)-6-methyl-2′-propylbiphenyl-3-yloxy-methyl]-2-hydroxymethylphenyl}methanol] | 0.0024 | – | 0.016 | – | 0.0076 | – | –
CCCc1cc(C(O)(CC)CC)ccc1-c1cc(OCc2ccc(CO)c(CO)c2)ccc1CC [Example 3, {4-[6-Ethyl-4′-(1-ethyl-1-hydroxypropyl)-2′-propylbiphenyl-3-yloxymethyl]-2-hydroxymethylphenyl}methanol] | 0.0022 | – | 0.015 | – | 0.011 | – | –
CCCc1cc(C(O)(CC)CC)ccc1-c1cc(CCc2ccc(CO)c(CO)c2)ccc1C [Example 5, (4-{2-[4′-(1-Ethyl-1-hydroxypropyl)-6-methyl-2′-propylbiphenyl-3-yl]ethyl}-2-hydroxymethylphenyl)methanol] | 0.0006 | superior activity | 0.0024 | – | 0.0018 | markedly superior activity | more than 5 times
CCc1ccc(OCc2ccc(CO)c(CO)c2)cc1-c1ccc(C(O)(CC)CC)cc1C(C)C [Example 4, {4-[6-Ethyl-4′-(1-ethyl-1-hydroxypropyl)-2′-isopropylbiphenyl-3-yloxymethyl]-2-hydroxymethylphenyl}methanol] | 0.0032 | – | 0.026 | – | 0.027 | – | –
C=C1/C(=C\C=C2/CCC[C@]3(C)[C@@H]([C@H](C)CCCC(C)(C)O)CC[C@@H]23)C[C@@H](O)C[C@@H]1O [Calcitriol, 1,25-dihydroxyvitamin D3, reference compound] | – | – | – | – | 0.0107 | – | –
